Source: the OligoGym collection
“And” between values parts separate entries of the source, which are not always exact repeats. Equal entries are not always repeated. After the bases stand the sugars from the 5' end (letter, count) and the backbone: PS all phosphorothioate, else s phosphorothioate and o phosphodiester by linkage. Methylation of C is not given here. e = 2'-O-(2-methoxyethyl) (MOE); k = constrained ethyl (cEt); d = 2'-deoxy (DNA); m = 2'-O-methyl

What was measured:
[1] = target: IRF4; settings: ASO
[2] = target: HSD17B13; settings: ASO, HepaRG

| Sequence | target mRNA inhibition ([1]; SK-MEL-28, 4 µM) | target mRNA inhibition ([2]; 1 µM) | further results |
| --- | --- | --- | --- |
| AAAAATATAACGGTGT (sugars k3 d10 k3, PS) | 24% |  |  |
| AAAACTACTATTGTGG (sugars k3 d10 k3, PS) | 14% |  |  |
| AAAAGTAACTGACACG (sugars k3 d10 k3, PS) | 61% |  |  |
| AAACAGCCCACTGAGT (sugars k3 d10 k3, PS) | 11% |  |  |
| AAACGACAAGTGGCGC (sugars k3 d10 k3, PS) | 21% |  |  |
| AAACGGCCTGGAGGTG (sugars k3 d10 k3, PS) |  |  | target mRNA inhibition ([1]; MM.1R, 1 µM): 11% |
| AAAGACAAGTGCCCAT (sugars k3 d10 k3, PS) | 24% |  |  |
| AAAGAGTGGTACACCT (sugars k3 d10 k3, PS) |  |  | target mRNA inhibition ([1]; MM.1R, 1 µM): 10% |
| AAATATACCAGCTCAA (sugars k3 d10 k3, PS) | 25% |  |  |
| AAATATCGCCCATGAG (sugars k3 d10 k3, PS) | 39% |  |  |
| AAATCTTCAACAGCAC (sugars k3 d10 k3, PS) | 45% |  |  |
| AACAAACAGAGGAGCG (sugars k3 d10 k3, PS) | 16% |  |  |
| AACACTTGGAGAAGTC (sugars k3 d10 k3, PS) | 43% |  |  |
| AACCAGCACAGTTCTC (sugars k3 d10 k3, PS) | -18% |  |  |
| AACCATGTTCCTGAAG (sugars k3 d10 k3, PS) | 41% |  |  |
| AACCATTACTTAGACA (sugars k3 d10 k3, PS) | 45% |  |  |
| AACGACAAGTGGCGCA (sugars k3 d10 k3, PS) |  |  | target mRNA inhibition ([1]; MM.1R, 1 µM): 12% |
| AACGACTCCACAGAGC (sugars k3 d10 k3, PS) |  |  | target mRNA inhibition ([1]; MM.1R, 1 µM): 4% |
| AACGGCCTGGAGGTGA (sugars k3 d10 k3, PS) |  |  | target mRNA inhibition ([1]; MM.1R, 1 µM): 1% |
| AACTAGCAGGGCACGC (sugars k3 d10 k3, PS) |  |  | target mRNA inhibition ([1]; MM.1R, 1 µM): 2% |
| AACTATAATTGGCACG (sugars k3 d10 k3, PS) | 73% and 59% |  |  |
| AACTCTCCTGTTTTCG (sugars k3 d10 k3, PS) | 42% |  |  |
| AACTGAGAGTGCGAGG (sugars k3 d10 k3, PS) | 1% |  |  |
| AAGAAACGAGTTGACA (sugars k3 d10 k3, PS) | 22% |  |  |
| AAGAAGCAAGTCGGTC (sugars k3 d10 k3, PS) | 55% |  |  |

| Sequence | target mRNA inhibition ([1]; SK-MEL-28, 4 µM) | target mRNA inhibition ([2]; 1 µM) | further results |
| --- | --- | --- | --- |
| AAGAAGCACTGGCATT (sugars k3 d10 k3, PS) | 22% |  |  |
| AAGAGGCGACTGCTGA (sugars k3 d10 k3, PS) | 35% |  |  |
| AAGCAAGTGTCTAAAG (sugars k3 d10 k3, PS) | 29% |  |  |
| AAGCAGTCATCACTCT (sugars k3 d10 k3, PS) | 38% |  |  |
| AAGCAGTGATGTCAGG (sugars kkddddddddddkeke, PS) |  |  | target mRNA inhibition ([1]; MM.1R, 0.0625 µM): 8%; target mRNA inhibition ([1]; MM.1R, 0.25 µM): 22%; target mRNA inhibition ([1]; MM.1R, 1 µM): 74% and 76% and 56%; target mRNA inhibition ([1]; MM.1R, 4 µM): 87% |
| AAGCAGTGATGTCAGG (sugars kkdddddddddekeke, PS) |  |  | target mRNA inhibition ([1]; MM.1R, 1 µM): 65% |
| AAGCAGTGATGTCAGG (sugars kkdddddddddkekek, PS) |  |  | target mRNA inhibition ([1]; MM.1R, 1 µM): 43% and 44% |
| AAGCATCCTTTCCTAC (sugars k3 d10 k3, PS) | 35% |  |  |
| AAGCATTTTATCATCC (sugars k2 d9 e3 k2, PS) |  |  | target mRNA inhibition ([1]; MM.1R, 1 µM): 21% |
| AAGCATTTTATCATCC (sugars k3 d9 k3 e1, PS) |  |  | target mRNA inhibition ([1]; MM.1R, 1 µM): 33% |
| AAGCATTTTATCATCC (sugars kkddddddddddkeke, PS) |  |  | target mRNA inhibition ([1]; MM.1R, 1 µM): 20% |
| AAGCCTAGAGGTGCCT (sugars k3 d10 k3, PS) |  |  | target mRNA inhibition ([1]; MM.1R, 1 µM): 29% |
| AAGCGCACCGCAGGCG (sugars k3 d10 k3, PS) | 4% |  |  |
| AAGCTTGATAAAGGCT (sugars e1 k2 d9 k2 e2, PS) |  |  | target mRNA inhibition ([1]; MM.1R, 1 µM): -1% |
| AAGCTTGATAAAGGCT (sugars k3 d9 k3 e1, PS) |  |  | target mRNA inhibition ([1]; MM.1R, 1 µM): 5% |
| AAGCTTGATAAAGGCT (sugars kkdddddddddekeke, PS) |  |  | target mRNA inhibition ([1]; MM.1R, 1 µM): 38% |
| AAGCTTGATAAAGGCT (sugars kkdddddddddkdkdk, PS) |  |  | target mRNA inhibition ([1]; MM.1R, 1 µM): -2% |
| AAGCTTGATAAAGGCT (sugars kkdddddddddkekek, PS) |  |  | target mRNA inhibition ([1]; MM.1R, 1 µM): -19% |
| AAGCTTGATAAAGGCT (sugars kkkddddddddkekek, PS) |  |  | target mRNA inhibition ([1]; MM.1R, 1 µM): -4% |
| AAGGAGTGCAGGAGAG (sugars k3 d10 k3, PS) | 13% |  |  |
| AAGGTCTGAGTTGTAC (sugars k3 d10 k3, PS) |  |  | target mRNA inhibition ([1]; MM.1R, 1 µM): 20% |
| TTGCACCGTTTTGGGC (sugars k3 d9 k3 e1, PS) |  | 50% |  |
| TTGCAGAAATTCACCT (sugars k3 d10 k3, PS) |  | 36% |  |
| TTGCAGCATTGATTCG (sugars k3 d10 k3, PS) |  | 59% |  |
| TTGCAGTTATTAGAAG (sugars k3 d9 k3 e1, PS) |  | 10% |  |

| Sequence | target mRNA inhibition ([1]; SK-MEL-28, 4 µM) | target mRNA inhibition ([2]; 1 µM) | further results |
| --- | --- | --- | --- |
| TTGGAATGCTACTTGA (sugars kkdddddddddkekek, PS) |  | 54% |  |
| TTGGTAAGTATTCCAT (sugars k3 d9 k3 e1, PS) |  | 28% |  |
| TTGGTTGGAGGCTGTA (sugars k3 d10 k3, PS) |  | 60% |  |
| TTGTATGAGGTCTCTC (sugars k3 d10 k3, PS) |  | 50% |  |
| TTGTCTAAACATCTCT (sugars k3 d10 k3, PS) |  | 60% |  |
| TTGTGTAGTCCTAGGG (sugars k3 d10 k3, PS) |  | 64% |  |
| TTGTTAAGCAGATGGC (sugars k3 d10 k3, PS) |  | 84% | target mRNA inhibition ([2]; 0.02 µM): 1%; target mRNA inhibition ([2]; 0.078 µM): 1%; target mRNA inhibition ([2]; 0.313 µM): 30%; target mRNA inhibition ([2]; 1.25 µM): 79%; target mRNA inhibition ([2]; 5 µM): 85% |
| TTTAAAATAGAGTCGG (sugars kkdddddddddkekek, PS) |  | 43% |  |
| TTTAACTTTCCTCCGT (sugars k3 d10 k3, PS) |  | 16% |  |
| TTTAATACGACTTCCT (sugars k3 d10 k3, PS) |  | 72% | target mRNA inhibition ([2]; 0.02 µM): 0%; target mRNA inhibition ([2]; 0.078 µM): 0%; target mRNA inhibition ([2]; 0.313 µM): 27%; target mRNA inhibition ([2]; 1.25 µM): 68%; target mRNA inhibition ([2]; 5 µM): 83% |
| TTTACTCACTTCTGGT (sugars k3 d10 k3, PS) |  | 30% |  |
| TTTACTGGGATACTAT (sugars k3 d10 k3, PS) |  | 25% |  |
| TTTAGAGAGCGATAGA (sugars k3 d10 k3, PS) |  | 13% |  |
| TTTAGCAGCTTGGAAG (sugars k3 d10 k3, PS) |  | 43% |  |
| TTTAGGATTAATTCCC (sugars k3 d10 k3, PS) |  | 16% |  |
| TTTAGGGCAAACCTTG (sugars k3 d10 k3, PS) |  | 67% |  |
| TTTCATAGGGAGACCA (sugars k3 d10 k3, PS) |  | 71% |  |
| TTTCTTATGTAATAGC (sugars k3 d9 k3 e1, PS) |  | 60% |  |
| TTTCTTATGTAATAGC (sugars kkdddddddddkekek, PS) |  | 60% |  |
| TTTCUTATGTAATAGC (sugars k3 d1 m1 d8 k3, PS) |  | 50% |  |
| TTTGAACCGTATTCCC (sugars k3 d10 k3, PS) |  | 69% | target mRNA inhibition ([2]; 0.02 µM): 36%; target mRNA inhibition ([2]; 0.078 µM): 41%; target mRNA inhibition ([2]; 0.313 µM): 57%; target mRNA inhibition ([2]; 1.25 µM): 79%; target mRNA inhibition ([2]; 5 µM): 85% |
| TTTGACTGCTGCTAGT (sugars k3 d10 k3, PS) |  | 21% |  |
| TTTGAGCCTAAAATTG (sugars k3 d10 k3, PS) |  | 26% |  |
